From the supplement of paper PMC10307832

Experiments:
Test in all cases: relative viability (nuclei count vs DMSO), 5 days (fraction); higher = more cells survive
Linsitinib + AZD7762 = compound: C[C@]1(O)C[C@@H](c2nc(-c3ccc4ccc(-c5ccccc5)nc4c3)c3c(N)nccn32)C1 [Linsitinib] + NC(=O)Nc1cc(-c2cccc(F)c2)sc1C(=O)N[C@H]1CCCNC1 [AZD7762] (partner 0.2 µM)
Procedure, shortened: (§1)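 Dosing by pin tool came one day after lung cancer cell lines were seeded in 1536-well plates, using either one drug or a fixed anchor-drug dose plus five library-drug doses (not always all listed) in √10 steps. After 5 days, nuclei were counted on 4× images. Relative viability is treated-well nuclei count divided by vehicle-well nuclei count, and values are medians of duplicate plates.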

Ispinesib + Tozasertib = compound: Cc1ccc(C(=O)N(CCCN)[C@@H](c2nc3cc(Cl)ccc3c(=O)n2Cc2ccccc2)C(C)C)cc1 [Ispinesib] + Cc1cc(Nc2cc(N3CCN(C)CC3)nc(Sc3ccc(NC(=O)C4CC4)cc3)n2)n[nH]1 [Tozasertib] (partner 0.1 µM)
Procedure, shortened: as §1

Linsitinib + Pictilisib = compound: C[C@]1(O)C[C@@H](c2nc(-c3ccc4ccc(-c5ccccc5)nc4c3)c3c(N)nccn32)C1 [Linsitinib] + CS(=O)(=O)N1CCN(Cc2cc3nc(-c4cccc5[nH]ncc45)nc(N4CCOCC4)c3s2)CC1 [Pictilisib] (partner 1 µM)
Procedure, shortened: as §1

Linsitinib + Palbociclib = compound: C[C@]1(O)C[C@@H](c2nc(-c3ccc4ccc(-c5ccccc5)nc4c3)c3c(N)nccn32)C1 [Linsitinib] + CC(=O)c1c(C)c2cnc(Nc3ccc(N4CCNCC4)cn3)nc2n(C2CCCC2)c1=O [Palbociclib] (partner 0.5 µM)
Procedure, shortened: as §1

| Cell Line | relative viability (Linsitinib + AZD7762; first compound 0.01 µM) | relative viability (Linsitinib + AZD7762; first compound 0.03162 µM) | relative viability (Linsitinib + AZD7762; first compound 0.1 µM) | relative viability (Linsitinib + AZD7762; first compound 0.3162 µM) | relative viability (Linsitinib + AZD7762; first compound 1 µM) | relative viability (Ispinesib + Tozasertib; first compound 0.001 µM) | relative viability (Ispinesib + Tozasertib; first compound 0.003162 µM) | relative viability (Ispinesib + Tozasertib; first compound 0.01 µM) | relative viability (Ispinesib + Tozasertib; first compound 0.03162 µM) | relative viability (Ispinesib + Tozasertib; first compound 0.1 µM) | relative viability (Linsitinib + Pictilisib; first compound 0.01 µM) | relative viability (Linsitinib + Pictilisib; first compound 0.03162 µM) | relative viability (Linsitinib + Pictilisib; first compound 0.1 µM) | relative viability (Linsitinib + Pictilisib; first compound 0.3162 µM) | relative viability (Linsitinib + Pictilisib; first compound 1 µM) | relative viability (Linsitinib + Palbociclib; first compound 0.01 µM) | relative viability (Linsitinib + Palbociclib; first compound 0.03162 µM) | relative viability (Linsitinib + Palbociclib; first compound 0.1 µM) | relative viability (Linsitinib + Palbociclib; first compound 0.3162 µM) | relative viability (Linsitinib + Palbociclib; first compound 1 µM) |
| --- | --- | --- | --- | --- | --- | --- | --- | --- | --- | --- | --- | --- | --- | --- | --- | --- | --- | --- | --- | --- |
| HCC-15 | 1.07 | 1.15 | 1.16 | 0.839 | 1.11 | 0.48 | 0.414 | 0.505 | 0.281 | 0.227 | 0.743 | 0.703 | 0.824 | 0.234 | 0.583 | 0.75 | 0.703 | 0.702 | 0.283 | 0.569 |
| NCI-H838 | 0.933 | 0.85 | 0.903 | 0.713 | 0.77 | 0.275 | 0.285 | 0.284 | 0.287 | 0.257 | 0.42 | 0.446 | 0.374 | 0.217 | 0.306 | 0.23 | 0.207 | 0.17 | 0.19 | 0.162 |
| RERF-LC-KJ | 0.254 | 1.02 | 0.905 | 0.419 | 0.71 | 0.593 | 0.412 | 0.329 | 0.262 | 0.354 | 0.593 | 0.55 | 0.538 | 0.44 | 0.429 | 0.909 | 0.795 | 1.05 | 0.464 | 1.1 |
| ChaGo-K-1 | 0.893 | 0.91 | 0.855 |  | 0.799 | 0.22 | 0.225 | 0.234 | 0.248 | 0.222 | 0.809 | 0.665 | 0.576 | 0.317 | 0.666 | 0.926 | 0.897 | 0.974 |  | 0.978 |
| NCI-H441 | 1.2 | 1.07 | 1.29 | 0.831 | 0.898 | 0.681 | 0.603 | 0.673 | 0.258 | 0.341 | 0.51 | 0.683 | 0.498 | 0.413 | 0.412 | 0.197 | 0.226 | 0.199 | 0.138 | 0.119 |
| NCI-H2170 | 0.918 | 0.959 | 0.768 |  | 0.68 | 0.741 | 0.689 | 0.848 | 0.556 | 0.41 | 0.336 | 0.317 | 0.308 | 0.26 | 0.23 | 0.386 | 0.4 | 0.381 |  | 0.412 |
| PC-14 | 0.296 | 0.307 | 0.34 | 0.305 | 0.27 | 0.662 | 0.669 | 0.624 | 0.433 | 0.0644 | 0.691 | 0.701 | 0.75 | 0.598 | 0.5 | 0.513 | 0.46 | 0.521 | 0.429 | 0.507 |
| NCI-H1395 | 0.373 |  | 0.394 | 0.477 | 0.38 | 0.778 | 0.874 | 0.808 | 0.58 | 0.404 | 0.568 | 0.603 | 0.618 | 0.573 | 0.556 | 0.653 |  | 0.713 | 0.641 | 0.654 |
| NCI-H1437 | 1.15 | 1.16 | 1.11 | 0.964 | 1.1 | 0.449 | 0.442 | 0.434 | 0.378 | 0.272 | 0.449 | 0.53 | 0.455 | 0.467 | 0.57 | 0.291 | 0.33 | 0.321 | 0.276 | 0.346 |
| NCI-H647 | 0.467 | 0.504 | 0.493 | 0.212 | 0.331 | 0.323 | 0.201 | 0.0519 | 0.217 | 0.303 | 0.415 | 0.42 | 0.452 |  | 0.347 | 0.377 | 0.459 | 0.32 | 0.171 | 0.322 |
| NCI-H1793 | 0.577 | 0.559 | 0.39 | 0.352 | 0.169 | 0.322 | 0.345 | 0.724 | 0.288 | 0.368 | 0.309 | 0.311 | 0.238 | 0.235 | 0.29 | 0.288 | 0.342 | 0.283 | 0.26 | 0.26 |
| NCI-H2087 | 1.15 | 1.23 | 1.38 | 1.34 | 1.13 | 0.301 | 0.246 | 0.29 | 0.261 | 0.155 | 0.92 | 0.906 | 0.723 | 0.294 | 0.775 | 0.205 | 0.268 | 0.15 | 0.175 | 0.299 |
| BEN | 0.563 | 0.771 | 0.617 | 0.742 | 0.677 | 0.508 | 0.464 | 0.548 | 0.633 | 0.574 | 0.526 | 0.576 | 0.64 | 0.425 | 0.606 | 0.487 | 0.422 | 0.45 | 0.361 | 0.468 |
| NCI-H3122 | 0.985 | 0.992 | 0.968 |  | 0.765 | 0.408 | 0.402 | 0.462 | 0.212 | 0.17 | 0.601 | 0.58 | 0.572 | 0.499 | 0.399 | 0.202 | 0.222 | 0.17 |  | 0.216 |
| LCLC-97TM1 | 0.299 | 0.271 | 0.317 | 0.162 | 0.271 | 0.196 | 0.143 | 0.215 | 0.173 | 0.191 | 0.283 | 0.254 | 0.208 | 0.117 | 0.154 | 0.223 | 0.205 | 0.191 | 0.195 | 0.212 |
| EMC-BAC-2 | 1.12 | 1.07 | 1.1 | 0.775 | 0.553 | 0.28 | 0.189 | 0.289 | 0.292 | 0.261 | 0.47 | 0.489 | 0.496 | 0.455 | 0.412 | 0.512 | 0.509 | 0.493 | 0.478 | 0.425 |
